Structures are written as SMILES.

In the first experiment the target is T1, C-C chemokine receptor type 4 (Homo sapiens, UniProt P51679).
T1 sequence (P51679 whole entry): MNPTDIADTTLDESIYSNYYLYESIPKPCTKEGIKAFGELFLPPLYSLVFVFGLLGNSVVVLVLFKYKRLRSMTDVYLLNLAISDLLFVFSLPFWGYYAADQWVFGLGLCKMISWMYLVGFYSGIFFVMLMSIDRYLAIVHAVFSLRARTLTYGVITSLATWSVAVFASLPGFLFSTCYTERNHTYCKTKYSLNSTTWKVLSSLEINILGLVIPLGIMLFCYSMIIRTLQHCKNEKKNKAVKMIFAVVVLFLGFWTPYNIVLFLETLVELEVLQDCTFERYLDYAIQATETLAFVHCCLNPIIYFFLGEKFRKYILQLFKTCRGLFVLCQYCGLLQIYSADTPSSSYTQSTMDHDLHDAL
Description: Displacement of [125I]TARC from human CCR4 receptor transfected in HEK293 cells. The format is cell-based.
Details: not given
The compound `CN1CCCC(C(=O)N2CCN(c3nccc(OCc4ccc(Cl)cc4Cl)n3)CC2)C1` (stereo not drawn) displayed an IC50 of 1.2 µM.
Compound `O=C(C1CNC1)N1CCN(c2nccc(NCc3ccc(Cl)cc3Cl)n2)CC1` registered an IC50 of more than 10 µM.
Same read-out and setting: to `O=C(Cc1cccnc1)N1CCN(c2nccc(OCc3ccc(Cl)cc3Cl)n2)CC1` belongs more than 10 µM.
Consider `O=C(C1CCNCC1)N1CCN(c2nccc(NCc3ccc(Cl)cc3Cl)n2)CC1`, for which the IC50 was more than 10 µM.
`O=C([C@H]1CCCCN1)N1CCN(c2nccc(NCc3ccc(Cl)cc3Cl)n2)CC1` displayed an IC50 of 0.05 µM.
For the compound `O=C([C@@H]1CCCCN1)N1CCN(c2nccc(NCc3ccc(Cl)cc3Cl)n2)CC1`, the IC50 was determined as 1 µM.
`CC(C)[C@@H](CNc1nccc(OCc2ccc(Cl)cc2Cl)n1)NC(=O)C1CCCN(C)C1` (stereo partly drawn) came in with an IC50 of 5.6 µM.
Still for that read-out and setting: the same measure for `CN1CCCC(C(=O)N2CCN(c3nccc(NCc4ccc(Cl)cc4Cl)n3)CC2)C1` (stereo not drawn): 0.7 µM.
On to `Cn1cnc(CC(=O)N2CCN(c3nccc(OCc4ccc(Cl)cc4Cl)n3)CC2)c1`, for which the IC50 is more than 10 µM.
Still for that read-out and setting: the same measure for `CN1CCCC(C(=O)NCCCNc2nccc(OCc3ccc(Cl)cc3Cl)n2)C1` (stereo not drawn): more than 10 µM.
The same measure, in the same setting: the same measure for `O=C([C@H]1CCCN1)N1CCN(c2nccc(NCc3ccc(Cl)cc3Cl)n2)CC1`: 0.06 µM; for `O=C(c1cccnc1)N1CCN(c2nccc(OCc3ccc(Cl)cc3Cl)n2)CC1`: more than 10 µM; for `CN1CCCC(C(=O)NCCNc2nccc(OCc3ccc(Cl)cc3Cl)n2)C1` (stereo not drawn): more than 10 µM.
`O=C(C1CCCNC1)N1CCN(c2nccc(NCc3ccc(Cl)cc3Cl)n2)CC1` (stereo not drawn) showed an IC50 of 0.8 µM.
Same read-out and setting: to `CN1CCCC(C(=O)N2CCN(c3ccnc(NCc4ccc(Cl)cc4Cl)n3)CC2)C1` (stereo not drawn) belongs 0.3 µM.

For another experiment, the system named is L1.2. Kind of experiment: Cytotoxicity against CCR4 transfected L1.2 cells (murine pre-B cells). The format is functional, cell-based. As to conditions: Mus musculus.
As to `O=C([C@H]1CCCCN1)N1CCN(c2nccc(NCc3ccc(Cl)cc3Cl)n2)CC1`, the IC50 is more than 100 µM.

Another experiment addresses T1, C-C chemokine receptor type 4. Description: Calcium mobilization mediated by CCR4 receptor in CEMS529 cells by FLIPR. The format is functional, cell-based.
Details: not given
As to `O=C([C@H]1CCCCN1)N1CCN(c2nccc(NCc3ccc(Cl)cc3Cl)n2)CC1`, the IC50 came to 0.01 µM.

For the next experiment, the system named is Mus musculus. Description: In vivo efficacy against allergic lung inflammation in BABL/c mice administered sc. The format is functional.
Details: not given
Turning to `O=C([C@H]1CCCCN1)N1CCN(c2nccc(NCc3ccc(Cl)cc3Cl)n2)CC1`, the 50% effect level (ED50) was put at a dose of 30 mg/kg.
